From PubChem BioAssay (NCI)
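Five compound concentrations were applied to cells in 96-well plates for 48 hours; endpoints were derived by simple linear interpolation of the resulting dose-response curve. At the GI50, growth is halved. TGI: concentration producing complete growth inhibition.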

Key:
Experiment in all cases: inhibition of tumour cell growth, NCI panel, 48 h
[1] = system: 786-0 renal
[2] = system: A498 renal
[3] = system: A549 NSCLC
[4] = system: ACHN renal
[5] = system: BT-549 breast
[6] = system: CAKI-1 renal
[7] = system: COLO 205 colon
[8] = system: DU-145 prostate
[9] = system: EKVX NSCLC
[10] = system: HCC-2998 colon
[11] = system: HCT-15 colon
[12] = system: HL-60(TB) leukemia
[13] = system: HOP-62 NSCLC
[14] = system: HOP-92 NSCLC
[15] = system: HS 578T breast
[16] = system: HT29 colon
[17] = system: IGROV1 ovarian
[18] = system: KM12 colon
[19] = system: M14 melanoma
[20] = system: MCF7 breast
[21] = system: MDA-MB-231 breast
[22] = system: MDA-MB-435
[23] = system: NCI-H23 lung
[24] = system: NCI-H460 lung
[25] = system: NCI-H522 lung
[26] = system: NCI/ADR-RES ovarian
[27] = system: OVCAR-3 ovarian
[28] = system: OVCAR-4 ovarian
[29] = system: OVCAR-5 ovarian
[30] = system: PC-3 prostate
[31] = system: RXF 393 renal
[32] = system: SF-268 CNS
[33] = system: SF-295 CNS
[34] = system: SF-539 CNS
[35] = system: SK-MEL-2 melanoma
[36] = system: SK-MEL-28 melanoma
[37] = system: SK-OV-3 ovarian
[38] = system: SN12C renal
[39] = system: SNB-19 CNS
[40] = system: SNB-75 CNS
[41] = system: SW-620 colon
[42] = system: T-47D breast
[43] = system: TK-10 renal
[44] = system: U251 CNS
[45] = system: UACC-257 melanoma
[46] = system: UACC-62 melanoma
[47] = system: UO-31 renal
[48] = system: CCRF-CEM leukemia
[49] = system: HCT-116 colon
[50] = system: K-562 leukemia
[51] = system: MOLT-4 leukemia
[52] = system: NCI-H226 lung
[53] = system: OVCAR-8 ovarian
[54] = system: RPMI-8226 leukemia
[55] = system: SK-MEL-5 melanoma

For `CCCCC/C=C/C/C=C/CCCCCCCC1=NC(C)(C)CN1C(C)C`, the GI50 [1] was 2.24 µM, the TGI [1] was 5.12 µM and the GI50 [2] was 2.35 µM. It also gave a TGI [2] of 15.5 µM, a GI50 [3] of 1.77 µM and a TGI [3] of 3.2 µM. The GI50 [4] was 1.7 µM, the TGI [4] was 3.07 µM and the GI50 [5] was 5.84 µM. The TGI [5] was 23 µM, the GI50 [6] was 1.3 µM and the TGI [6] was 2.57 µM. For the same compound, the GI50 [7] was 1.47 µM, the TGI [7] was 2.79 µM and the GI50 [8] was 1.73 µM. The TGI [8] was 3.11 µM, the GI50 [9] was 1.3 µM and the TGI [9] was 2.73 µM. It also gave a GI50 [10] of 1.67 µM, a TGI [10] of 3.06 µM and a GI50 [11] of 1.63 µM. The TGI [11] was 3.17 µM, the GI50 [12] was 1.48 µM and the TGI [12] was 3.43 µM. The GI50 [13] was 1.58 µM, the TGI [13] was 3.17 µM and the GI50 [14] was 1.31 µM. For the same compound, the TGI [14] was 3.37 µM, the GI50 [15] was 1.84 µM and the TGI [15] was 3.67 µM. It also gave a GI50 [16] of 1.38 µM, a TGI [16] of 2.74 µM and a GI50 [17] of 1.23 µM. It also gave a TGI [17] of 2.47 µM, a GI50 [18] of 1.61 µM and a TGI [18] of 2.96 µM. For the same compound, the GI50 [19] was 1.85 µM, the TGI [19] was 3.4 µM and the GI50 [20] was 1.54 µM. The TGI [20] was 2.87 µM, the GI50 [21] was 1.75 µM and the TGI [21] was 4.36 µM. The GI50 [22] was 1.5 µM, the TGI [22] was 2.82 µM and the GI50 [23] was 1.49 µM. The TGI [23] was 3.24 µM, the GI50 [24] was 1.82 µM and the TGI [24] was 3.34 µM. The GI50 [25] was 1.72 µM, the TGI [25] was 3.17 µM and the GI50 [26] was 2.32 µM. It also gave a TGI [26] of 7.44 µM, a GI50 [27] of 1.49 µM and a TGI [27] of 2.81 µM. It also gave a GI50 [28] of 1.55 µM, a TGI [28] of 3 µM and a GI50 [29] of 1.87 µM. It also gave a TGI [29] of 4.1 µM, a GI50 [30] of 1.7 µM and a TGI [30] of 3.41 µM. The GI50 [31] was 2.1 µM, the TGI [31] was 4.8 µM and the GI50 [32] was 1.68 µM. For the same compound, the TGI [32] was 3.05 µM, the GI50 [33] was 1.49 µM and the TGI [33] was 2.83 µM. It also gave a GI50 [34] of 1.82 µM, a TGI [34] of 3.3 µM and a GI50 [35] of 1.85 µM. The TGI [35] was 3.35 µM, the GI50 [36] was 1.7 µM and the TGI [36] was 3.07 µM. For the same compound, the GI50 [37] was 3.07 µM, the TGI [37] was 12.6 µM and the GI50 [38] was 1.71 µM. The TGI [38] was 4.08 µM, the GI50 [39] was 1.59 µM and the TGI [39] was 3 µM. For the same compound, the GI50 [40] was 1.44 µM, the TGI [40] was 2.87 µM and the GI50 [41] was 1.6 µM. For the same compound, the TGI [41] was 2.99 µM, the GI50 [42] was 1.97 µM and the TGI [42] was 3.98 µM. It also gave a GI50 [43] of 1.67 µM, a TGI [43] of 3.04 µM and a GI50 [44] of 1.53 µM. The TGI [44] was 2.87 µM, the GI50 [45] was 1.72 µM and the TGI [45] was 3.2 µM. For the same compound, the GI50 [46] was 1.69 µM, the TGI [46] was 3.12 µM and the GI50 [47] was 1.21 µM. The TGI [47] was 2.45 µM.

For `Cc1oc2nc(N(C)C)nc(Cl)c2c1C`, the TGI [1] was over 100 µM, the TGI [2] was over 100 µM and the TGI [3] was over 100 µM. The TGI [4] was over 100 µM, the TGI [5] was over 100 µM and the TGI [6] was over 100 µM. For the same compound, the TGI [48] was over 100 µM, the TGI [7] was over 100 µM and the TGI [8] was over 100 µM. It also gave a TGI [9] of over 100 µM, a TGI [10] of over 100 µM and a TGI [49] of over 100 µM. For the same compound, the TGI [11] was over 100 µM, the TGI [12] was over 100 µM and the TGI [13] was over 100 µM. For the same compound, the TGI [14] was over 100 µM, the TGI [15] was over 100 µM and the TGI [16] was over 100 µM. The TGI [17] was over 100 µM, the TGI [50] was over 100 µM and the TGI [18] was over 100 µM. The TGI [19] was over 100 µM, the TGI [21] was over 100 µM and the TGI [22] was over 100 µM. For the same compound, the TGI [51] was over 100 µM, the TGI [52] was over 100 µM and the TGI [23] was over 100 µM. It also gave a TGI [24] of over 100 µM, a TGI [25] of over 100 µM and a TGI [26] of over 100 µM. For the same compound, the TGI [27] was over 100 µM, the TGI [28] was over 100 µM and the TGI [29] was over 100 µM. For the same compound, the TGI [53] was over 100 µM, the TGI [30] was over 100 µM and the TGI [54] was over 100 µM. It also gave a TGI [31] of over 100 µM, a TGI [32] of over 100 µM and a TGI [33] of over 100 µM. It also gave a TGI [34] of over 100 µM, a TGI [35] of over 100 µM and a TGI [36] of over 100 µM. It also gave a TGI [55] of over 100 µM, a TGI [38] of over 100 µM and a TGI [39] of over 100 µM. For the same compound, the TGI [40] was over 100 µM, the TGI [41] was over 100 µM and the TGI [42] was over 100 µM. It also gave a TGI [43] of over 100 µM, a TGI [44] of over 100 µM and a TGI [45] of over 100 µM. It also gave a TGI [46] of over 100 µM and a TGI [47] of over 100 µM.
